Test results taken from patent US6355799B1, “Substituted benzene compounds, process for their preparation, and herbicidal and defoliant compositions containing them” (ISK Americas Incorporated, priority 1997, dated 2002).

How the values were obtained:
Type in all cases: in vivo
[1] = system: upland rice (Oryza sp., var. Tebonnet, RICE); assay: Pre-emerge test, crop safety; conditions: crop damage rating 0-100, 14 days after application
How it was run: (§1)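 Plants grown in 10 cm pots of sandy loam mix received acetone-dissolved compounds through a moving flat-fan nozzle. Doses ranged from 15 to 1000 g ai/ha. Pre-emerge pots were seeded one day earlier, post-emerge pots 8–21 days earlier. Fourteen days on, each pot was graded 0–100 for damage.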

[2] = system: field corn (Zea mays L., var. Dekalb 535, CORN); assay: Pre-emerge test, crop safety; conditions: crop damage rating 0-100, 14 days after application
How it was run: as §1

[3] = system: upland rice (Oryza sp., var. Tebonnet, RICE); assay: Post-emerge test, crop safety; conditions: post-emerge, 14 days after application, rating scale 0-100
How it was run: (§2)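 Compounds in acetone were track-sprayed at 187 l/ha, 15–1000 g ai/ha, onto sandy loam pots. Pre-emerge seeds were sown one day before spraying, with surface watering afterwards. Post-emerge plants were at the 2–3 leaf stage and sprayed with 0.25% v/v non-ionic surfactant. Injury was rated 0–100 at 14 days.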

[4] = system: field corn (Zea mays L., var. Dekalb 535, CORN); assay: Post-emerge test, crop safety; conditions: post-emerge, 14 days after application, rating scale 0-100
How it was run: as §2

[5] = system: redroot pigweed (Amaranthus retroflexus, AMARE); assay: Pre-emerge test, greenhouse herbicide activity screening; conditions: phytotoxicity rating 0-100, 14 days after application
How it was run: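 Rating: 0–100 visual injury, 14 DAA. Application: acetone, 187 l/ha, 15–1000 g ai/ha, flat-fan track sprayer with nozzle 40–45 cm above soil or canopy. Post-emerge runs used 0.25% v/v surfactant on 2–3 leaf plants.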

[6] = system: redroot pigweed (Amaranthus retroflexus, AMARE); assay: Post-emerge test, greenhouse herbicide activity screening; conditions: post-emerge, 14 days after application
Source text: (§3) A standard greenhouse herbicide activity screening system was used to evaluate the herbicidal efficacy and crop safety of these test compounds. Seven broadleaf weed species including redroot pigweed (Amaranthus retroflexus, AMARE, velvetleaf (Abutilon theophrasti, ABUTH), sicklepod (Cassia obtusifolia, CASOB), ivyleaf morningglory (Ipomoea hederacea, IPOHE), lambsquarters (Chenopodium album, CHEAL), common ragweed (Ambrosia artemisizfolia L., AMBEL), and cocklebur (Xanthium strumarium, XANST) were used as test species. Four grass weed species including green foxtail (Setaria viridis, SETVI), barnyardgrass (Echinochloa crus-galli, ECHCG), johnsongrass (Sorghum halepense, SORHA), and large crabgrass (Digitaria sanguinalis, DIGSA) were also used. In addition, three crop species, field corn (Zea mays L., var. Dekalb 535, CORN), soybean (Glycine max L., var. Pella 86, SOY), and is upland rice (Oryza sp., var. Tebonnet, RICE) were included.
(§4) All plants were grown in 10 cm square plastic pots which were filled with a sandy loam soil mix. For pre-emerge tests, seeds were planted one day prior to application of the test compounds. For post-emerge tests, seeds were planted 8-21 days prior to the test to allow emergence and good foliage development prior to application of the test substances. At the time of the post-emerge application, plants of all species were usually at the 2-3 leaf stage of development.
(§5) All test compounds Were dissolved in acetone and applied to the test units in a volume of 187 l /ha. Test materials were applied at rates ranging from 15 g ai/ha to 1000 g ai/ha using a track sprayer equipped with a TJ8001E even flow flat fan spray nozzle. Plants were arranged on a shelf so that the top of the canopy (post-emerge) or top of the soil surface (pre-emerge) was 40-45 cm below the nozzle. Pressurized air was used to force the test solution through the nozzle as it was mechanically advanced (via electrically driven chain drive) over the top of all test plants/pots. This application simulates a typical commercial field herbicide application.
(§6) In the post-emerge test, a commercial non-ionic surfactant was also included (0.25% v/v) to enhance wetting of the leaf surfaces of target plants. Immediately after application, test units of the pre-emerge applications were watered at the soil surface to incorporate the test materials. Subsequently, these test units were bottom-watered. Post-emerge test units were always bottom-watered.
(§7) At 14 days after application of the test materials, phytotoxicity ratings were recorded. A rating scale of 0-100 was used as previously described in Research Methods in Weed Science, 2nd edition, B. Truelove, Ed., Southern Weed Science Society, Auburn University, Auburn, Ala. 1977. Briefly, “0” corresponds to no damage and “100” corresponds to complete death of all plants in the test unit. This scale was used both to determine efficacy against weed species and damage to crop species. Herbicide activity data for various compounds of this invention, which are shown by compound No. in Tables 1-8, are shown in Tables 11 and 12.

[7] = system: large crabgrass (Digitaria sanguinalis, DIGSA); assay: as above; conditions: post-emerge, 14 days after application, rating scale 0-100
Source text: as §3, §4, §5, §6, §7

[8] = system: ivyleaf morningglory (Ipomoea hederacea, IPOHE); assay: as above; conditions: post-emerge, 14 days after application, rating scale 0-100
Source text: as §3, §4, §5, §6, §7

[9] = system: barnyardgrass (Echinochloa crus-galli, ECHCG); assay: as above; conditions: post-emerge, 14 days after application, rating scale 0-100
Source text: as §3, §4, §5, §6, §7

[10] = system: green foxtail (Setaria viridis, SETVI); assay: as above; conditions: post-emerge, 14 days after application, rating scale 0-100
Source text: as §3, §4, §5, §6, §7

[11] = system: lambsquarters (Chenopodium album, CHEAL); assay: as above; conditions: post-emerge, 14 days after application, rating scale 0-100
Source text: as §3, §4, §5, §6, §7

[12] = system: velvetleaf (Abutilon theophrasti, ABUTH); assay: as above; conditions: post-emerge, 14 days after application, rating scale 0-100
Source text: as §3, §4, §5, §6, §7

[13] = system: sicklepod (Cassia obtusifolia, CASOB); assay: as above; conditions: post-emerge, 14 days after application, rating scale 0-100
Source text: as §3, §4, §5, §6, §7

[14] = system: large crabgrass (Digitaria sanguinalis, DIGSA); assay: Pre-emerge test, greenhouse herbicide activity screening; conditions: phytotoxicity rating 0-100, 14 days after application
Source text: as §3, §4, §5, §6, §7

[15] = system: ivyleaf morningglory (Ipomoea hederacea, IPOHE); assay: as above; conditions: phytotoxicity rating 0-100, 14 days after application
Source text: as §3, §4, §5, §6, §7

[16] = system: barnyardgrass (Echinochloa crus-galli, ECHCG); assay: as above; conditions: phytotoxicity rating 0-100, 14 days after application
Source text: as §3, §4, §5, §6, §7

[17] = system: green foxtail (Setaria viridis, SETVI); assay: as above; conditions: phytotoxicity rating 0-100, 14 days after application
Source text: as §3, §4, §5, §6, §7

[18] = system: lambsquarters (Chenopodium album, CHEAL); assay: as above; conditions: phytotoxicity rating 0-100, 14 days after application
Source text: as §3, §4, §5, §6, §7

[19] = system: velvetleaf (Abutilon theophrasti, ABUTH); assay: as above; conditions: phytotoxicity rating 0-100, 14 days after application
Source text: as §3, §4, §5, §6, §7

[20] = system: sicklepod (Cassia obtusifolia, CASOB); assay: as above; conditions: phytotoxicity rating 0-100, 14 days after application
Source text: as §3, §4, §5, §6, §7

COc1c(Cl)ccc(-n2c(=O)cc(C(F)(F)F)n(C)c2=O)c1NC(=O)c1ccc2ccccc2c1 [2-202]
Pre-emerge Herbicidal Activity RICE ([1]; 63 g ai/ha): 40 | Pre-emerge Herbicidal Activity RICE ([1]; 250 g ai/ha): 90 | Pre-emerge Herbicidal Activity CORN ([2]; 63 g ai/ha): 0 | Pre-emerge Herbicidal Activity CORN ([2]; 250 g ai/ha): 50 | phytotoxicity rating RICE (crop damage) ([3]; 63 g ai/ha): 20 | phytotoxicity rating RICE (crop damage) ([3]; 250 g ai/ha): 60 | phytotoxicity rating CORN (crop damage) ([4]; 63 g ai/ha): 15 | phytotoxicity rating CORN (crop damage) ([4]; 250 g ai/ha): 30 | Pre-emerge Herbicidal Activity AMARE ([5]; 63 g ai/ha): 100 | Pre-emerge Herbicidal Activity AMARE ([5]; 250 g ai/ha): 100 | phytotoxicity rating AMARE ([6]; 63 g ai/ha, rating scale 0-100 (0 no damage, 100 complete death)): 100 | phytotoxicity rating AMARE ([6]; 250 g ai/ha, rating scale 0-100): 100 | phytotoxicity rating DIGSA ([7]; 63 g ai/ha): 0 | phytotoxicity rating DIGSA ([7]; 250 g ai/ha): 30 | phytotoxicity rating IPOHE ([8]; 63 g ai/ha): 100 | phytotoxicity rating IPOHE ([8]; 250 g ai/ha): 100 | phytotoxicity rating ECHCG ([9]; 63 g ai/ha): 10 | phytotoxicity rating ECHCG ([9]; 250 g ai/ha): 40 | phytotoxicity rating SETVI ([10]; 63 g ai/ha): 30 | phytotoxicity rating SETVI ([10]; 250 g ai/ha): 40 | phytotoxicity rating CHEAL ([11]; 63 g ai/ha): 100 | phytotoxicity rating CHEAL ([11]; 250 g ai/ha): 100 | phytotoxicity rating ABUTH ([12]; 63 g ai/ha): 100 | phytotoxicity rating ABUTH ([12]; 250 g ai/ha): 100 | phytotoxicity rating CASOB ([13]; 63 g ai/ha): 100 | phytotoxicity rating CASOB ([13]; 250 g ai/ha): 100 | Pre-emerge Herbicidal Activity DIGSA ([14]; 63 g ai/ha): 30 | Pre-emerge Herbicidal Activity DIGSA ([14]; 250 g ai/ha): 100 | Pre-emerge Herbicidal Activity IPOHE ([15]; 63 g ai/ha): 100 | Pre-emerge Herbicidal Activity IPOHE ([15]; 250 g ai/ha): 100 | Pre-emerge Herbicidal Activity ECHCG ([16]; 63 g ai/ha): 90 | Pre-emerge Herbicidal Activity ECHCG ([16]; 250 g ai/ha): 100 | Pre-emerge Herbicidal Activity SETVI ([17]; 63 g ai/ha): 40 | Pre-emerge Herbicidal Activity SETVI ([17]; 250 g ai/ha): 100 | Pre-emerge Herbicidal Activity CHEAL ([18]; 63 g ai/ha): 100 | Pre-emerge Herbicidal Activity CHEAL ([18]; 250 g ai/ha): 100 | Pre-emerge Herbicidal Activity ABUTH ([19]; 63 g ai/ha): 100 | Pre-emerge Herbicidal Activity ABUTH ([19]; 250 g ai/ha): 100 | Pre-emerge Herbicidal Activity CASOB ([20]; 63 g ai/ha): 30 | Pre-emerge Herbicidal Activity CASOB ([20]; 250 g ai/ha): 80
